The values that follow come from ChEMBL document CHEMBL3507680, “University of Dundee, Gates Library screen for HepG2 cell viability”.

This data set in a line: Human HepG2 cell viability assay in 384 well format. Type of data set: toxicity, cell-based. Also noted: dose 125 nL, time 70.5 hour; cytotoxicity at 70.5 h: concentration not given beside the values. The note with it: HepG2 cells, read-out: Inhibition.
As for `Cc1ccc(C(=O)N2CC(C)(C)[C@@](C)(O)C2)cc1N1CCNC1=O`, the cytotoxicity at 70.5 h stood at 0.84%.

For the compound `Cc1cc(C)c2nc(CN3CCC(CN)CC3)cc(O)c2c1`, the cytotoxicity at 70.5 h stood at 2.77%.

For the compound `O=C(N[C@@H]1CCNC[C@H]1O)c1ccc(O)c(Cl)c1`, the cytotoxicity at 70.5 h was -8.26%.

On to `Cc1ccc(C)c(-n2cc(CN3CCOCC3)c(-c3ccccc3)n2)c1`, for which the cytotoxicity at 70.5 h was -3.83%.

For `CCOc1ccc(C(=O)N2Cc3cnc(CC(C)C)nc3C2)o1`, the cytotoxicity at 70.5 h was -4.06%.

Regarding `CCN1CCC(CC(=O)N(C)C(C)c2cncs2)CC1` (stereo unspecified), the cytotoxicity at 70.5 h was -1.72%.

For `CC(C)N1CCC(c2nnc(CN3CCCC3)n2C2CC2)CC1`, the cytotoxicity at 70.5 h is -4.86%.

In the case of `CCOCc1nc2c(c(N3CCN4CCCC4C3)n1)CCNCC2` (stereo unspecified), the cytotoxicity at 70.5 h is -13.6%.

Turning to `CN1CCCC2(CCN(S(=O)(=O)c3c(Cl)nc4sccn34)C2)C1=O` (stereo unspecified), the cytotoxicity at 70.5 h was -5.17%.

In the case of `Cn1cccc1C(=O)N1CCC(c2nnc(Cn3ccnc3)n2C)CC1`, the cytotoxicity at 70.5 h is -5.24%.

As for `C[C@@H]1CN(CC(C)(C)N2CCOCC2)CC[C@@]1(O)C1CCOCC1`, the cytotoxicity at 70.5 h came to 7.82%.

Regarding `CCC(C(=O)NC1CCCCC1)n1cccc(OC)c1=O` (stereo unspecified), the cytotoxicity at 70.5 h is -1.81%.

`Cn1cc(C(=O)N2CCCC(C(=O)CCc3ccccc3)C2)cn1` (stereo unspecified): the cytotoxicity at 70.5 h was -23.4%.

Regarding `COc1ccc(OCc2nc(C(=O)N3CCCNC(=O)C3)co2)cc1`, the cytotoxicity at 70.5 h was -2.16%.

Regarding `Cc1nc(NCCSc2ccccn2)c2c(C)noc2n1`, the cytotoxicity at 70.5 h was -4.96%.

Regarding `CN(C)C(=O)c1ccc(N2CCC3(CCC(=O)N(CCO)C3)CC2)nc1`, the cytotoxicity at 70.5 h is -2.34%.

In the case of `COc1ccc2c(C)c(C(=O)NC3CCOCC3)oc2c1`, the cytotoxicity at 70.5 h was -0.242%.

Take `Cc1[nH]ccc1C(=O)N1C[C@H]2CC[C@@H]1CN(S(=O)(=O)N(C)C)C2`: the cytotoxicity at 70.5 h is -6.98%.

For `Cc1nn(C)cc1-c1ccnc(N(C)Cc2ccon2)n1`, the cytotoxicity at 70.5 h is -5.47%.

Turning to `CC(C)=CCN1C[C@H]2CC[C@@H]1CN(Cc1coc(C)n1)C2`, the cytotoxicity at 70.5 h is -5.37%.

Regarding `COc1cccc(CC2(C(=O)O)CCN(c3nccs3)CC2)c1`, the cytotoxicity at 70.5 h was -7.32%.

Turning to `COc1cc(N2CCCC(CO)(Cc3ccccc3F)C2)ncn1` (stereo unspecified), the cytotoxicity at 70.5 h was 50.5%.

On to `CCN1CCC2(CCC1=O)CN(C1CCOCC1)CCN2C` (stereo unspecified), for which the cytotoxicity at 70.5 h is -6.68%.

Consider `CCCN1C[C@H]2CC[C@@H]1CN(C(=O)c1ccc(N(C)CCO)cc1)C2`, for which the cytotoxicity at 70.5 h came out at 1.16%.

As for `COc1ncccc1-c1nc(-c2ccccn2)nn1C1CCN(C)CC1`, the cytotoxicity at 70.5 h was -6.87%.

As for `c1ncn(Cc2nnc(C3CCN(C4CCOCC4)CC3)n2C2CC2)n1`, the cytotoxicity at 70.5 h was -7.09%.

Take `COc1cc(C(=O)N2CCC(O)(CN3CCOCC3)C(C)(C)C2)ccn1` (stereo unspecified): the cytotoxicity at 70.5 h was -0.646%.

`O=C(CC(F)(F)F)N1C[C@@H]2CC[C@H](C1)N(Cc1ccccc1)C2=O`: the cytotoxicity at 70.5 h was -9.7%.

In the case of `O=C1CN(Cc2cn(CC3CCCN(C4CCSCC4)C3)nn2)CCN1` (stereo unspecified), the cytotoxicity at 70.5 h worked out at 16.1%.

For the compound `Cc1cc(CC(=O)N2CCN(CC(C)C)[C@@H]3CS(=O)(=O)C[C@@H]32)ccc1F`, the cytotoxicity at 70.5 h was 7.77%.

Regarding `CCO[C@H]1C[C@@H](O)C12CCN(C(=O)CCN1CCCC1=O)CC2`, the cytotoxicity at 70.5 h is -9.62%.

In the case of `C=Cc1ccc(C(=O)N2CCCC(Nc3ccc(F)c(F)c3)C2)cc1` (stereo unspecified), the cytotoxicity at 70.5 h was 26%.

In the case of `O=C1N(Cc2cccc(F)c2F)CCCC1(O)CNCC1CCCCC1` (stereo unspecified), the cytotoxicity at 70.5 h amounted to 0.845%.

`Cc1c(CNC(=O)c2cn(CCC3CCCCN3)nn2)cnn1C` (stereo unspecified): the cytotoxicity at 70.5 h is -1.47%.

For `O=C(O)C1c2nc[nH]c2CCN1Cc1ccccc1-c1ccccc1` (stereo unspecified), the cytotoxicity at 70.5 h is -3.54%.

For `O=C(NCCc1ccc2c(c1)OCO2)C1CCCN(Cc2ccco2)C1` (stereo unspecified), the cytotoxicity at 70.5 h worked out at 1.41%.

Turning to `CCC(NS(=O)(=O)c1ccc(C(=O)NC2CC2)cc1)c1cnn(C)c1` (stereo unspecified), the cytotoxicity at 70.5 h was -8.25%.

Take `CCc1nc(CNc2cc(C)nc(-c3cccnc3)n2)cs1`: the cytotoxicity at 70.5 h turned out to be 24.1%.

With `Cc1ccc(F)cc1-c1ccc(N)nc1`, the cytotoxicity at 70.5 h stood at 15.8%.

Take `Cc1cnn(C(C)C(=O)NCC2CCN(c3cnn(C)c(=O)c3)CC2)c1` (stereo unspecified): the cytotoxicity at 70.5 h is -5.13%.

For `Cc1cc(C(=O)N2C[C@H](c3ccccc3)[C@@H](N)C2)c2ccc(F)cc2n1`, the cytotoxicity at 70.5 h is -12.1%.

In the case of `N#Cc1cccc(C(=O)N2CCCC(O)(CO)CC2)c1` (stereo unspecified), the cytotoxicity at 70.5 h is -4.07%.

In the case of `CCc1cc(-c2cc[nH]n2)nc(N2CCOCC2)n1`, the cytotoxicity at 70.5 h was determined as 15.6%.

Turning to `CCCc1cc(CN(C)C2CCSCC2)n[nH]1`, the cytotoxicity at 70.5 h was determined as 0.588%.

With `Cc1cccc(C(C(=O)NCc2nc(-c3ncccn3)no2)N(C)C)c1` (stereo unspecified), the cytotoxicity at 70.5 h is -2.35%.

For `c1ccc(-c2cc(CN3CCCCCC3c3ccco3)on2)nc1` (stereo unspecified), the cytotoxicity at 70.5 h was -4.66%.

In the case of `C[C@@H](N)C(=O)N1CCC(c2[nH]ncc2-c2ccccc2)CC1`, the cytotoxicity at 70.5 h is -8.76%.

On to `COc1cccc(CN(C)C(C)c2nccs2)c1OCCn1ccnc1` (stereo unspecified), for which the cytotoxicity at 70.5 h was -3.88%.

In the case of `Cc1cccc2ncn(C(C)Cn3cccn3)c(=O)c12` (stereo unspecified), the cytotoxicity at 70.5 h was -10.4%.

Turning to `CN1CCN([C@@H]2CCN(Cc3cccc(-n4cccn4)c3)C[C@H]2O)CC1`, the cytotoxicity at 70.5 h was found to be 2.97%.

`CCCc1cc(N2CCC(NC3CCOCC3)CC2)nc(C)n1`: the cytotoxicity at 70.5 h was found to be 22.8%.

Consider `COc1ccc(N2CCN(Cc3noc(CC(C)C)n3)C(C)C2=O)cc1` (stereo unspecified), for which the cytotoxicity at 70.5 h was -24.6%.

With `NC(=O)c1cc2c(nc1Oc1ccc(CN3CCCC3)cc1F)CCC2`, the cytotoxicity at 70.5 h is -10.9%.

As to `COc1c(F)cc(-c2cn(CCn3c(C)cc(C)nc3=O)nn2)cc1Cl`, the cytotoxicity at 70.5 h is -2.6%.

Regarding `Cc1cccnc1CN1CCN(C(=O)CCn2ccc(=O)[nH]c2=O)CC1`, the cytotoxicity at 70.5 h was -9.8%.

`COCCN1CCC2(CC1)CC(c1ccccc1)C(=O)N2C` (stereo unspecified): the cytotoxicity at 70.5 h was -7.45%.

As for `Cc1nccn1CC1CCCN(C(=O)Cc2ccsc2)C1` (stereo unspecified), the cytotoxicity at 70.5 h is -17.7%.

`COCCN1CC2(CCCN(Cc3cc(=O)c(OC)co3)C2)CCC1=O` (stereo unspecified): the cytotoxicity at 70.5 h was -8.24%.

With `CCc1nc(N2CCCN(c3ncccn3)CC2)c2cnn(C)c2n1`, the cytotoxicity at 70.5 h is -7.44%.

For the compound `Cn1cc(-c2ccnc(NCC3CC3)n2)cn1`, the cytotoxicity at 70.5 h is -10.3%.

As for `O=C(O)C1(O)CCN(c2ccc3cccc(Cl)c3n2)CC1`, the cytotoxicity at 70.5 h is -20.3%.

`CCCOC(C)Cn1ccc2[nH]c(=O)c(C#N)cc2c1=O` (stereo unspecified): the cytotoxicity at 70.5 h stood at 10.5%.

In the case of `CC(=O)Nc1ccc(-c2ccccc2CCN)cc1`, the cytotoxicity at 70.5 h is -4.46%.

Take `CCNC(=O)[C@@H]1C[C@@H](N)CN1C(=O)Cc1cc(C)ccc1C`: the cytotoxicity at 70.5 h was -8.37%.

For the compound `CCc1nc(C)sc1CN1CC[C@@](O)(C2CC2)[C@H](C)C1`, the cytotoxicity at 70.5 h is -7.56%.

Regarding `O=C1CC[C@H]2CN(C3CCOCC3)CC[C@H]2N1CCC1=CCCCC1`, the cytotoxicity at 70.5 h is 2.84%.

Take `Cc1nc2c(c(NCc3ccccc3)n1)CCN(C(=O)C1CCC1)CC2`: the cytotoxicity at 70.5 h is -6.11%.

Regarding `CN(C)c1nc(NCc2ccccc2Cn2cccn2)ncc1F`, the cytotoxicity at 70.5 h came to 5.75%.

`Cc1ccc([C@H]2CN(C(=O)CC3CCC3)C[C@@H]2N)o1`: the cytotoxicity at 70.5 h was found to be 0.0304%.

On to `CCS(=O)(=O)N1CCC(c2nnc(CN3CCCCC3)n2C)CC1`, for which the cytotoxicity at 70.5 h was -3.65%.

Take `NCC1Cc2cc(-c3cncc(C(=O)N4CCOCC4)n3)cc(Cl)c2O1` (stereo unspecified): the cytotoxicity at 70.5 h is -4.26%.

As to `Cn1cccc1C(=O)N1C[C@H]2CC[C@@H]1CN(Cc1cscn1)C2`, the cytotoxicity at 70.5 h turned out to be 1.29%.

As for `CCCc1cc(CNC2CCN(c3cc(C)nc(N)n3)CC2)on1`, the cytotoxicity at 70.5 h is -5.61%.

On to `O=C(C1CCCO1)N1CCC(n2cc(-c3ccsc3)nn2)CC1` (stereo unspecified), for which the cytotoxicity at 70.5 h is -13.3%.

Regarding `Cc1nn(C)c(C)c1CCC(=O)N1CCCOC(Cn2cccn2)C1` (stereo unspecified), the cytotoxicity at 70.5 h is -2.69%.

`O=C1CCCCN1Cc1cccc(OC(F)F)c1`: the cytotoxicity at 70.5 h came to 4.41%.

As to `CC(=O)NCC(=O)N1CCC(C2CCN(Cc3ccc(Cl)cc3)C2)CC1` (stereo unspecified), the cytotoxicity at 70.5 h was -2.13%.

`Cc1ncsc1CCCn1ccnc1-c1cc2n(n1)CCCNC2`: the cytotoxicity at 70.5 h is -9.03%.

Turning to `O=C(CCc1cn[nH]c1)N1CCC(C2CCN(c3ncccn3)CC2)C1` (stereo unspecified), the cytotoxicity at 70.5 h amounted to 0.44%.

As for `Cc1c[nH]c(CN(C)C(=O)[C@]23CNC[C@H]2CNC3)n1`, the cytotoxicity at 70.5 h is -4.74%.

On to `C1Cc2nc(CCNc3nc(C4CC4)nc4c3CCNCC4)sc2C1`, for which the cytotoxicity at 70.5 h is -4.01%.

As to `Cc1cc(C)n(CCNC(=O)c2ncc[nH]2)c(=O)n1`, the cytotoxicity at 70.5 h was -3.22%.

`COc1cccc(Cc2nc3c([nH]2)CC(C)(C)CNC3=O)c1OC`: the cytotoxicity at 70.5 h was -1.08%.

As for `CC(COc1ccccc1)NCc1cn2ccccc2n1` (stereo unspecified), the cytotoxicity at 70.5 h was -4.87%.

Turning to `COc1ccnc(N2C[C@@H](NS(=O)(=O)N(C)C)[C@H](C(C)C)C2)n1`, the cytotoxicity at 70.5 h is 9.46%.

On to `COCCN(C)C[C@@H]1CN(c2nnc(C(C)C)s2)C[C@@H]1CO`, for which the cytotoxicity at 70.5 h was -9.43%.

`CN(Cc1cc(C(C)(C)C)n[nH]1)C(=O)c1ccc2nccn2c1`: the cytotoxicity at 70.5 h is -2.34%.

`Cc1cc2nc(C(C)C)cc(NCC(c3ccccn3)N(C)C)n2n1` (stereo unspecified): the cytotoxicity at 70.5 h was found to be 3.67%.

Regarding `CCN(Cc1cc(F)ccc1Cl)C1CCS(=O)(=O)C1` (stereo unspecified), the cytotoxicity at 70.5 h stood at 29.9%.

In the case of `COc1ccc(CC2(CO)CCN(c3cc(N)ncn3)CC2)cc1`, the cytotoxicity at 70.5 h is -6.39%.

As to `Nc1nc2c(c(N3CCSCC3)n1)CCN(Cc1ccccn1)CC2`, the cytotoxicity at 70.5 h was -2.53%.

Regarding `CNC(=O)c1[nH]nc2c1CN(c1cc(C3CCCNC3)nc(C)n1)CC2` (stereo unspecified), the cytotoxicity at 70.5 h is -10.6%.

For the compound `CCc1noc(C)c1-c1nc(Cc2cccs2)nn1C1CCN(C)CC1`, the cytotoxicity at 70.5 h is -1.49%.

With `CN(C)C(=O)N1CCN(Cc2nc3ccccc3[nH]2)[C@H]2CS(=O)(=O)C[C@H]21`, the cytotoxicity at 70.5 h was 25%.

Take `Cc1ccc(C(=O)O)cc1-c1cccc(C(C)N(C)C)c1` (stereo unspecified): the cytotoxicity at 70.5 h was -2.39%.

For the compound `CC(C)COc1cccc(-c2nc3c([nH]2)CCNC3)c1`, the cytotoxicity at 70.5 h was 3.41%.
